{"source": "patent US4804502A", "about": "“Vitamin D compounds” (priority 1988, dated 1989)", "key": {"[1]": {"test_system": "HL-60 promyelocytic leukemia cells", "assay": "Inhibition of proliferation of HL-60 cells", "format": "cell-based", "conditions": "Homo sapiens, HL-60, 192 h, 8 days; for inhibition at 0.001 µM: 0.1 × 10^-8 M; for inhibition at 0.01 µM: 1 × 10^-8 M; for inhibition at 0.1 µM: 10 × 10^-8 M; for IC50: from dose response curves, read-out: ID50 (concentration which reduced the cell number by 50%)", "description": "(§1) Inhibition of Cell Proliferation and Induction of Cell Differentiation\n(§2) Cultures of HL-60 promyelocytic leukemia cells were established in the absence (control) and presence of various concentrations of test compounds. After an 8-day incubation period, the cultures were evaluated for proliferation of tumor cells, cell viability, and cellular differentiation. Proliferation was assessed by directly enumerating the increased number of tumor cells resulting from cell division during incubation. Viability was assessed by dye exclusion technique to learn whether any of the compounds were lethal to the cultured HL-60 cells. Cellular differentiation was evaluated by determining the number of cells which had acquired the enzymes necessary to support a respiratory burst, a characteristic of mature macrophages and granulocytes.\n(§3) Tissue culture medium used in these experiments was RPMI-1640 supplemented to 10% v/v with heat-inactivated fetal bovine serum and to an additional 1.6 mM with L-glutamine.\n(§4) Test compounds were dissolved in sufficient ethanol to yield stock solutions of 1×10^-2 or 1×10^-3 molar. Reduced lighting was used when working with compounds and stock solutions were stored in the dark at -20° C. in an argon atmosphere. Compounds were diluted in tissue culture medium and added to flasks containing HL-60 cells to achieve the final concentration described in each test.\n(§5) The HL-60 tumor cell line was originally derived from a patient with promyelocytic leukemia and was obtained from the American Type Culture Collection. The cells were maintained in liquid culture by serial passage twice weekly in tissue culture medium. […] In any test, three replicate flasks were incubated without compound (control) or in the presence of varying concentrations of test compound. Ethanol, used as the vehicle, was kept constant in all dilutions in each test and had no effect on cell proliferation, viability or cell differentiation at the concentrations used (≤0.1%). After 8 days of incubation at 37° in a humidified atmosphere of 5% CO2 in air, cultures were evaluated for tumor cell proliferation, viability and differentiation.\nQuantitation of proliferation was done by enumerating the number of HL-60 cells in each individual flask (3 flasks per experimental point) using an Elzone electronic particle counter. Results are shown as the percent reduction of cell number calculated for each concentration tested according to the formula: [formula] The results are also expressed as the concentration which reduced the cell number by 50% (ID50)."}, "[2]": {"test_system": "HL-60 promyelocytic leukemia cells", "assay": "Induction of differentiation of HL-60 cells (NBT reduction)", "format": "cell-based, human", "conditions": "8 days; for EC50: Homo sapiens, HL-60, 192 h, from dose response curves, read-out: ED50 (concentration which induced differentiation of 50% of the cells)", "description": "as §1, §2, §3, §4, §5\nQuantitation of differentiated cells was done by the biochemical method of nitroblue tetrazolum (NBT) reduction. One million HL-60 cells were pooled from replicate cultures, centrifuged at 220×g for 10 minutes, and resuspended in 1 ml of Ca^++ -Mg^++ -deficient phosphate buffered saline prepared by supplementing Ca^++ -Mg^++ -free phosphate buffered saline (PBS) to 20% v/v with heat-inactivated fetal bovine serum). Nitroblue tetrazolium was dissolved at 0.5 mg per ml in Ca^++ -Mg^++ -free PBS with gentle heating and frequent mixing. A stock solution of 1 mg tetradecanoyl phorbol acetate (TPA) per ml in ethanol, stored at -20°, was diluted 100-fold with Ca^++ -Mg^++ -free PBS to prepare a working solution. The test was done by adding 1 ml of NBT solution and 0.02 ml of the working TPA solution to the HL-60 cells. After mixing, the tubes were incubated in a 37° water bath for 25 minutes then transferred to ice. Undifferentiated and differentiated cells present in any sample were determined microscopically by surveying a minimum of 300 cells per sample. Cells without pigmented granules (clear cells) were judged to be undifferentiated while those containing greater than 3 blue-black formazan granules were scored as differentiated. Generally, differentiated cells were intensely pigmented clearly indicating the enzymatic conversion of NBT to formazan. Results are expressed as the percentage of differentiated cells present in any sample as calculated according to the formula: [formula] The results are also expressed as the concentration of compound which induced differentiation of 50% of the cells (ED50)."}, "vitamin D deficient rats": {"test_system": "vitamin D deficient rats", "conditions": "3 weeks"}, "[3]": {"conditions": "read-out: % Reduction in cell number"}}, "note": "Read-outs that look alike come from different tables or passages of the source."}
{"smiles": "C=C1/C(=C\\C=C2/CCC[C@]3(C)[C@@H]([C@H](C)CC#CC(C)(C)O)CC[C@@H]23)C[C@@H](O)C[C@@H]1O", "note": "[Compound A, 1α,25-dihydroxy-23-yne-cholecalciferol]", "values": [{"measurement": "inhibition at 0.001 µM", "setting": "[1]; [3]", "result": 30, "unit": "%"}, {"measurement": "inhibition at 0.01 µM", "setting": "[1]; [3]", "result": 67, "unit": "%"}, {"measurement": "inhibition at 0.1 µM", "setting": "[1]; [3]", "result": 85, "unit": "%"}, {"measurement": "IC50", "setting": "[1]", "result": 6, "unit": "nM"}, {"measurement": "% Differentiated cells", "setting": "[2]; 0.1 × 10^-8 M", "result": 15, "unit": "%"}, {"measurement": "% Differentiated cells", "setting": "[2]; 1 × 10^-8 M", "result": 54, "unit": "%"}, {"measurement": "% Differentiated cells", "setting": "[2]; 10 × 10^-8 M", "result": 98, "unit": "%"}, {"measurement": "EC50", "setting": "[2]", "result": 9, "unit": "nM"}]}
{"smiles": "C=C1/C(=C\\C=C2/CCC[C@]3(C)[C@@H]([C@H](C)CC#CC(O)(C(F)(F)F)C(F)(F)F)CC[C@@H]23)C[C@@H](O)C[C@@H]1O", "note": "[Compound B]", "values": [{"measurement": "inhibition at 0.0001 µM", "setting": "[1]; 0.01 × 10^-8 M, read-out: % Reduction in cell number", "result": 15, "unit": "%"}, {"measurement": "inhibition at 0.001 µM", "setting": "[1]; [3]", "result": 31, "unit": "%"}, {"measurement": "inhibition at 0.01 µM", "setting": "[1]; [3]", "result": 85, "unit": "%"}, {"measurement": "inhibition at 0.1 µM", "setting": "[1]; [3]", "result": 89, "unit": "%"}, {"measurement": "IC50", "setting": "[1]", "result": 2, "unit": "nM"}, {"measurement": "% Differentiated cells", "setting": "[2]; 0.01 × 10^-8 M", "result": 13, "unit": "%"}, {"measurement": "% Differentiated cells", "setting": "[2]; 0.1 × 10^-8 M", "result": 29, "unit": "%"}, {"measurement": "% Differentiated cells", "setting": "[2]; 1 × 10^-8 M", "result": 95, "unit": "%"}, {"measurement": "% Differentiated cells", "setting": "[2]; 10 × 10^-8 M", "result": 98, "unit": "%"}, {"measurement": "EC50", "setting": "[2]", "result": 2, "unit": "nM"}, {"measurement": "Bone Mass", "setting": "vitamin D deficient rats; daily dose 18 ng", "result": "385 ± 77", "unit": "mm^3 /cm^3"}, {"measurement": "Serum Ca^2+", "setting": "vitamin D deficient rats; daily dose 18 ng", "result": "15.63 ± 0.36", "unit": "mg/dL"}, {"measurement": "Serum PO4^2-", "setting": "vitamin D deficient rats; daily dose 18 ng", "result": "7.66 ± 0.17", "unit": "mg/dL"}, {"measurement": "Bone Mass", "setting": "vitamin D deficient rats; daily dose 72 ng", "result": "746 + 48 mm^3 /cm^3"}, {"measurement": "Serum Ca^2+", "setting": "vitamin D deficient rats; daily dose 72 ng", "result": "15.23 ± 0.22", "unit": "mg/dL"}, {"measurement": "Serum PO4^2-", "setting": "vitamin D deficient rats; daily dose 72 ng", "result": "6.34 ± 0.26", "unit": "mg/dL"}]}
